Source: patent US11744830B2, “Ameliorative agent for cytokine release syndrome and so on” (TORII PHARMACEUTICAL CO., LTD., priority 2018, dated 2023)

How the values were obtained:
Format in all cases: cell-based, human
[1] = tested on: VEGF production from macrophages; assay: LPS stimulation-induced VEGF production in macrophages; conditions: Macrophages, LPS
Method: CD14^+ cells were cultured in 20 ng/mL M-CSF-containing RPMI medium at 37° C. for 5 days to induce differentiation into macrophages (during which the medium was replaced once every two days with fresh 20 ng/mL M-CSF-containing RPMI medium). […] The macrophages were then stimulated with LPS (final concentration: 100 ng/mL) or RPMI medium alone at 37° C. for 3 days, followed by collecting the culture supernatants. The collected culture supernatants were quantified for VEGF using Human VEGF DuoSet ELISA.

[2] = tested on: IL-1β production in CD14^+ cells; assay: LPS stimulation-induced IL-1β production in CD14^+ cells; conditions: LPS
Method: (§1) Cryopreserved PBMCs were quickly thawed in a 37° C. thermostat and added to a tube containing medium. After centrifugation (at room temperature at 300 g for 10 minutes) to remove the supernatant, the cells were suspended again in the medium, followed by counting the number of viable cells. The cell suspension was centrifuged (at room temperature at 300 g for 10 minutes) to remove the supernatant, followed by addition of MACS Buffer to suspend the cells, to which Human CD14 MicroBeads were further added. After being allowed to stand on ice for 15 minutes, the cell suspension was diluted with MACS Buffer and centrifuged (at room temperature at 300 g for 10 minutes) to remove the supernatant. MACS Buffer was added to the tube, and the cells were suspended and then applied to a separatory column to separate CD14^+ cells. The CD14^+ cell fraction was diluted with the medium and then centrifuged (at room temperature at 300 g for 10 minutes). The supernatant was removed and the cells were suspended in the medium (1 mL), followed by counting the number of viable cells. The cell suspension was adjusted with the medium to 2.4×10^5 or 3×10^5 cells/mL and seeded in a 96-well plate (2.4×10^4 cells/well), which was then allowed to stand in a CO2 incubator for 1 to 2 hours.
The culture supernatants collected in 1.2.10 were quantified for IL-1β using Human IL-1β DuoSet ELISA.

IL-8 production = assay: CRS toxicity evaluation system using CAR-T cells: IL-8; conditions: CRS toxicity evaluation system using CAR-T cells
Method: (§2) The supernatants were collected at 72 hours after the initiation of culture, and various cytokines in each supernatant were measured by FACS multiplex assay.

IL-1β production = assay: CRS toxicity evaluation system using CAR-T cells: IL-1β; conditions: CRS toxicity evaluation system using CAR-T cells
Method: as §2

TNF-α production = assay: CRS toxicity evaluation system using CAR-T cells: TNF-α; conditions: CRS toxicity evaluation system using CAR-T cells
Method: as §2

[3] = tested on: OPN production from CD14^+ cells; assay: LPS stimulation-induced OPN production in CD14^+ cells; conditions: LPS
Method: as §1
The collected culture supernatants were quantified for OPN using Human OPN DuoSet ELISA.

[4] = tested on: IL-18 production from LPS-pretreated CD14^+ cells; assay: ATP stimulation-induced IL-18 production from LPS-pretreated CD14^+ cells; conditions: LPS-pretreated CD14^+ cells, ATP
Method: Cryopreserved PBMCs were quickly thawed in a 37° C. thermostat and added to a tube containing medium. After centrifugation (at room temperature at 300 g for 10 minutes) to remove the supernatant, the cells were suspended again in the medium, followed by counting the number of viable cells. The cell suspension was centrifuged (at room temperature at 300 g for 10 minutes) to remove the supernatant, followed by addition of MACS Buffer to suspend the cells, to which Human CD14 MicroBeads were further added. After being allowed to stand on ice for 15 minutes, the cell suspension was diluted with MACS Buffer and centrifuged (at room temperature at 300 g for 10 minutes) to remove the supernatant.
MACS Buffer was added to the tube, and the cells were suspended and then applied to a separatory column to separate CD14^+ cells. The CD14^+ cell fraction was diluted with the medium and then centrifuged (at room temperature at 300 g for 10 minutes). The supernatant was removed and the cells were suspended in the medium (1 mL), followed by counting the number of viable cells. The cell suspension adjusted with the medium to 2×10^6 cells/mL was seeded in a 96-well plate (1×10^5 cells/well) and allowed to stand in a CO2 incubator for 1 to 2 hours. […] The cells were then stimulated with LPS (final concentration: 500 ng/mL) for 6 hours at 37° C. and an ATP solution (final concentration: 5 mM) was added thereto, and the 96-well plate was further allowed to stand in a CO2 incubator for 2 hours to collect the culture supernatants.
The collected culture supernatants were quantified for IL-18 using Human IL-18 DuoSet ELISA.

MCP-1 production = assay: CRS toxicity evaluation system using CAR-T cells: MCP-1; conditions: CRS toxicity evaluation system using CAR-T cells
Method: as §2

Tocilizumab: interleukin (IL)-6R antibody (tocilizumab) approved at the same time as CAR-T cell therapy
no suppressive effect: effect on VEGF production from macrophages [1] | suppressive effect on IL-1β production [2] | suppressive effect on IL-8 production (IL-8 production) | suppressive effect on IL-1β (IL-1β production) | suppressive effect on TNF-α (TNF-α production) | suppressive effect on OPN production [3] | suppressive effect on IL-18 production [4] | suppressive effect on MCP-1 production (MCP-1 production)
